# Laboratory results taken from US20260265195A1, “SARM1 MODULATORS, PREPARATIONS, AND USES THEREOF” (SIRONAX LTD, priority 2022, published 2026).
# Target: T1, SARM1 (50-724) (Homo sapiens, UniProt Q6SZW1)
# T1 construct: Purified SARM1 (50-724) with a final concentration of 2 nM
# T1 sequence (Q6SZW1 50-724): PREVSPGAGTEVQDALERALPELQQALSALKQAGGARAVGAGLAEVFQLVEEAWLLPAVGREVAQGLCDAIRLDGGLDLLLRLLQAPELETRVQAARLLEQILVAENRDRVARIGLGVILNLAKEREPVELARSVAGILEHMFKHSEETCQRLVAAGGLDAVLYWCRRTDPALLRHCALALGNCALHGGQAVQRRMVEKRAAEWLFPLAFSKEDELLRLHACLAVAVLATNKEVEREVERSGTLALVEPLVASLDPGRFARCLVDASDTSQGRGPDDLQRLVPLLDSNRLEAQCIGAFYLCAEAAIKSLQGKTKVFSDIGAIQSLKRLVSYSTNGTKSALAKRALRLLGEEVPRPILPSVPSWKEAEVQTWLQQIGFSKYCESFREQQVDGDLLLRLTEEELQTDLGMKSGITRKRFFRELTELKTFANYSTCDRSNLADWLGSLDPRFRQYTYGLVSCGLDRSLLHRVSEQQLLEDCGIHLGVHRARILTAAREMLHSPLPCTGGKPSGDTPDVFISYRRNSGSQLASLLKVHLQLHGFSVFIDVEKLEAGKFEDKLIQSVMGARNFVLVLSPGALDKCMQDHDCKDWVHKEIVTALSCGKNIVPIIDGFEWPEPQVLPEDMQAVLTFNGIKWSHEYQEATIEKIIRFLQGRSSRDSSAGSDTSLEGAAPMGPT
# Assay: SARM1 (50-724) enzymatic assay (NMN-activated NAD+ hydrolysis, LC-MS/MS readout)
# Type: biochemical
# Conditions: purified SARM1 (50-724) 2 nM, 200 μM NMN activator, 100 μM NAD+ substrate, 1 h at room temperature, read-out: IC50 (SARM1 inhibitory activity)
# How it was run: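 Purified human SARM1 (50-724), 2 nM final in DPBS, pre-incubated 15 min at RT with compound (1% DMSO), then started with 200 μM NMN activator and 100 μM NAD+. After 1 h at RT, quenched with 70% acetonitrile; analysed by LC-MS/MS.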
row,IC50 [nM],Structure (SMILES)
1,≤ 100,"O=C(c1nc2cc(C(F)(F)F)ccc2[nH]1)N(CCOC1COC1)c1cccc(Cl)c1Cl [Compound 178, N-(2,3-dichlorophenyl)-N-(2-(oxetan-3-yloxy)ethyl)-5-(trifluoromethyl)-1H-benzo[d]imidazole-2-carboxamide]"
2,101 to 500,"Cc1ccc2[nH]c(C(=O)N(C)C3CCCC3)nc2c1C [Compound 92, N-cyclopentyl-N,6,7-trimethyl-1H-benzo[d]imidazole-2-carboxamide]"
3,≤ 100,"O=C(c1nc2cc(C(F)(F)F)ccc2[nH]1)N(CCO)c1cccc(F)c1Cl [Compound 157, N-(2-chloro-3-fluorophenyl)-N-(2-hydroxyethyl)-5-(trifluoromethyl)-1H-benzo[d]imidazole-2-carboxamide]"
4,101 to 500,"Cc1ccc2[nH]c(C(=O)N(C)c3ccccc3Cl)c(CO)c2c1 [Compound 6, N-(2-chlorophenyl)-3-(hydroxymethyl)-N,5-dimethyl-1H-indole-2-carboxamide]"
5,≥ 1000,"Cc1ccc2[nH]c(C(=O)N(C)c3ccccn3)c(CO)c2c1 [Compound 4, 3-(hydroxymethyl)-N,5-dimethyl-N-(pyridin-2-yl)-1H-indole-2-carboxamide]"
6,≤ 100,"CC1CCC(C)C1N(CCO)C(=O)c1nc2cc(C(F)(F)F)ccc2[nH]1 (stereo not shown) [Compound 102, N-(2,5-dimethylcyclopentyl)-N-(2-hydroxyethyl)-5-(trifluoromethyl)-1H-benzo[d]imidazole-2-carboxamide]"
7,101 to 500,"O=C(c1nc2cc(C(F)(F)F)ccc2[nH]1)N(CC(F)(F)CO)c1cc(F)c(F)cc1Cl [Compound 220, N-(2-chloro-4,5-difluorophenyl)-N-(2,2-difluoro-3-hydroxypropyl)-5-(trifluoromethyl)-1H-benzo[d]imidazole-2-carboxamide]"
8,≤ 100,"CC1(c2ccc3[nH]c(C(=O)N(CC(F)(F)CO)c4cccc(F)c4Cl)nc3c2)COC1 [Compound 223, N-(2-chloro-3-fluorophenyl)-N-(2,2-difluoro-3-hydroxypropyl)-5-(3-methyloxetan-3-yl)-1H-benzo[d]imidazole-2-carboxamide]"
9,≤ 100,COC(=O)C(C)(C)c1ccc2[nH]c(C(=O)N(CC3(F)COC3)c3cccc(Cl)c3Cl)nc2c1 [Compound 204]
10,≤ 100,CC(O)CN(C(=O)c1nc2cc(C(F)(F)F)ccc2[nH]1)c1cccc(Cl)c1Cl (stereo not shown) [Compound 170]
11,≤ 100,"Cc1cccc(N(C)C(=O)c2nc3cc(C(F)(F)F)ccc3[nH]2)c1Cl [Compound 125, N-(2-chloro-3-methylphenyl)-N-methyl-5-(trifluoromethyl)-1H-benzo[d]imidazole-2-carboxamide]"
12,≥ 1000,O=C(c1nc2c(Cl)c(-c3ccn[nH]3)ccc2[nH]1)N(CC1COC1)c1cccc(Cl)c1Cl [Compound 143]
13,101 to 500,"O=C(c1nc2cc(C(F)(F)F)ccc2[nH]1)N(CC(F)(F)CO)c1cc(F)ccc1Cl [Compound 219, N-(2-chloro-5-fluorophenyl)-N-(2,2-difluoro-3-hydroxypropyl)-5-(trifluoromethyl)-1H-benzo[d]imidazole-2-carboxamide]"
14,≤ 100,CCOC(=O)C(F)(F)CN(C(=O)c1nc2cc(C3CC3)ccc2[nH]1)c1cccc(F)c1Cl [Compound 209]
15,≤ 100,"CC1(C)OCC(CN(C(=O)c2nc3cc(C(F)(F)F)ccc3[nH]2)c2cccc(Cl)c2Cl)O1 (racemic) [Compound 173, N-(2,3-dichlorophenyl)-N-((2,2-dimethyl-1,3-dioxolan-4-yl)methyl)-5-(trifluoromethyl)-1H-benzo[d]imidazole-2-carboxamide]"
16,≤ 100,"O=C(c1nc2cc(C(F)(F)F)ccc2[nH]1)N(CC(F)(F)CO)c1ccc(F)c(F)c1Cl [Compound 212, N-(2-chloro-3,4-difluorophenyl)-N-(2,2-difluoro-3-hydroxypropyl)-5-(trifluoromethyl)-1H-benzo[d]imidazole-2-carboxamide]"
17,≥ 1000,"Cc1ccc2[nH]c(C(=O)N(C)c3ccccc3C#N)c(CO)c2c1 [Compound 7, N-(2-cyanophenyl)-3-(hydroxymethyl)-N,5-dimethyl-1H-indole-2-carboxamide]"
18,≤ 100,O=C(c1nc2cc(C(F)(F)F)cc(F)c2[nH]1)N(CCO)c1cccc(Cl)c1Cl [Compound 206]
19,≤ 100,O=C(c1nc2cc(C3CC3)ccc2[nH]1)N(CCO)c1cccc(Cl)c1Cl [Compound 190]

row,IC50 [nM],Structure (SMILES)
1,≤ 100,"O=C(c1nc2cc(C(F)(F)F)ccc2[nH]1)N(CC1(F)COC1)c1cccc(Cl)c1Cl [Compound 135, N-(2,3-dichlorophenyl)-N-((3-fluorooxetan-3-yl)methyl)-5-(trifluoromethyl)-1H-benzo[d]imidazole-2-carboxamido]"
2,≤ 100,"C[S+]([O-])CCCN(C(=O)c1nc2cc(C(F)(F)F)ccc2[nH]1)c1cccc(F)c1Cl (racemic) [Compound 230, N-(2-chloro-3-fluorophenyl)-N-(3-(methylsulfinyl)propyl)-5-(trifluoromethyl)-1H-benzo[d]imidazole-2-carboxamide]"
3,≥ 1000,"Cc1ccc2[nH]c(C(=O)N(C)c3cccnc3)c(CO)c2c1 [Compound 22, 3-(hydroxymethyl)-N,5-dimethyl-N-(pyridin-3-yl)-1H-indole-2-carboxamide]"
4,≥ 1000,Cc1c(-c2ccn[nH]2)ccc2[nH]c(C(=O)N(CC3COC3)c3cccc(Cl)c3Cl)nc12 [Compound 142]
5,≤ 100,"CC(C)(O)CN(C(=O)c1nc2cc(C(F)(F)F)ccc2[nH]1)c1cccc(Cl)c1Cl [Compound 168, N-(2,3-dichlorophenyl)-N-(2-hydroxy-2-methylpropyl)-5-(trifluoromethyl)-1H-benzo[d]imidazole-2-carboxamide]"
6,101 to 500,"CS(=O)(=O)c1ccc2[nH]c(C(=O)N(CCO)c3cccc(Cl)c3Cl)nc2c1 [Compound 108, N-(2,3-dichlorophenyl)-N-(2-hydroxyethyl)-5-(methylsulfonyl)-1H-benzo[d]imidazole-2-carboxamide]"
7,≤ 100,"O=C(c1nc2cc(C(F)(F)F)ccc2[nH]1)N(CCN1CCCS1(=O)=O)c1cccc(Cl)c1Cl [Compound 199, N-(2,3-dichlorophenyl)-N-(2-(1,1-dioxidoisothiazolidin-2-yl)ethyl)-5-(trifluoromethyl)-1H-benzo[d]imidazole-2-carboxamide]"
8,≤ 100,O=C(c1nc2cc(C3CC3)ccc2[nH]1)N(CC(F)(F)CO)c1cccc(F)c1Cl [Compound 210]
9,101 to 500,O=C(c1nc2cc(CO)ccc2[nH]1)N(CCO)c1cccc(Cl)c1Cl [Compound 171]
10,501 to 1000,"Cc1cccc(N(CCO)C(=O)c2nc3cc(C(F)(F)F)ccc3[nH]2)c1F [Compound 172, N-(2-fluoro-3-methylphenyl)-N-(2-hydroxyethyl)-5-(trifluoromethyl)-1H-benzo[d]imidazole-2-carboxamide]"
11,≤ 100,"CS(=N)(=O)CCCN(C(=O)c1nc2cc(C(F)(F)F)ccc2[nH]1)c1cccc(F)c1Cl (stereo not shown) [Compound 224, N-(2-chloro-3-fluorophenyl)-N-(3-(S-methylsulfonimidoyl)propyl)-5-(trifluoromethyl)-1H-benzo[d]imidazole-2-carboxamide]"
12,≤ 100,NC(=O)C(F)(F)CN(C(=O)c1nc2cc(Cl)cc(F)c2[nH]1)c1cccc(F)c1Cl [Compound 234]
13,101 to 500,"Cc1ccnc(N(CCO)C(=O)c2nc3cc(C(F)(F)F)ccc3[nH]2)c1Cl [Compound 138, N-(3-chloro-4-methylpyridin-2-yl)-N-(2-hydroxyethyl)-5-(trifluoromethyl)-1H-benzo[d]imidazole-2-carboxamide]"
14,≥ 1000,"Cc1ccc2[nH]c(C(=O)N(C)C3CCN(C)CC3)c(CNc3ccccn3)c2c1 [Compound 86, N,5-dimethyl-N-(1-methylpiperidin-4-yl)-3-((pyridin-2-ylamino)methyl)-1H-indole-2-carboxamide]"
15,≥ 1000,"Cc1ccc2[nH]c(C(=O)N(C)c3ccc(C#N)cc3Cl)c(CO)c2c1 [Compound 9, N-(2-chloro-4-cyanophenyl)-3-(hydroxymethyl)-N,5-dimethyl-1H-indole-2-carboxamide]"
16,101 to 500,"COCCN(C(=O)c1nc2cc(C)ccc2[nH]1)C1CCCC1 [Compound 62, N-cyclopentyl-N-(2-methoxyethyl)-5-methyl-1H-benzo[d]imidazole-2-carboxamide]"
17,501 to 1000,"CN(C(=O)c1nc2cc(C(F)(F)F)ccc2[nH]1)c1ccncc1OC(F)(F)F [Compound 237, N-methyl-N-(3-(trifluoromethoxy)pyridin-4-yl)-5-(trifluoromethyl)-1H-benzo[d]imidazole-2-carboxamide]"
18,101 to 500,"COc1ccc(Cl)c(N(CC(F)(F)CO)C(=O)c2nc3cc(C(F)(F)F)ccc3[nH]2)n1 [Compound 207, N-(3-chloro-6-methoxypyridin-2-yI)-N-(2,2-difluoro-3-hydroxypropyl)-5-(trifluoromethyl)-1H-benzo[d]imidazole-2-carboxamide]"
